# Measurements: patent US7915291B2, “Hepatitis C virus inhibitors” (Bristol-Myers Squibb Company, priority 2002, dated 2011)
# Where two headings read alike, the source gives them in different places.
# Target: HCV NS3/4A protease complex, BMS strain (UniProt P27958, C1454S/C1711G, species not given/STRAIN_BMS)
# Test: Recombinant HCV NS3/4A protease complex FRET peptide assay (BMS strain)
# Format: biochemical, HCV genotype 1a
# Text: Recombinant HCV NS3/4A Protease Complex FRET Peptide Assay
# The purpose of this in vitro assay was to measure the inhibition of HCV NS3 protease complexes, derived from the BMS, H77C or J416S strains, as described below, by compounds of the present invention.
# Serum from an HCV-infected patient was obtained from Dr. T. Wright, San Francisco Hospital. An engineered full-length cDNA (compliment deoxyribonucleic acid) template of the HCV genome (BMS strain) was constructed from DNA fragments obtained by reverse transcription-PCR(RT-PCR) of serum RNA (ribonucleic acid) and using primers selected on the basis of homology between other genotype 1a strains.
# The BMS, H77C and J4L6S strains were used for production of recombinant NS3/4A protease complexes. […] Briefly, a three-lysine solubilizing tail was added at the 3′-end of the NS4A coding region. […] Briefly, NS3/4A expression was induced with 0.5 mM Isopropyl β-D-1-thiogalactopyranoside (IPTG) for 22 hr at 20° C. […] The crude protein extract was loaded on a Nickel—Nitrilotriacetic acid (Ni-NTA) column pre-equilibrated with buffer B (25 mM HEPES, pH8.0, 20% glycerol, 500 mM NaCl, 0.5% Triton-X100, 15 mM imidazole, 5 mM βME). The sample was loaded at a flow rate of 1 mL/min. The column was washed with 15 column volumes of buffer C (same as buffer B except with 0.2% Triton-X100). The protein was eluted with 5 column volumes of buffer D (same as buffer C except with 200 mM Imidazole).
# NS3/4A protease complex-containing fractions were pooled and loaded on a desalting column Superdex-S200 pre-equilibrated with buffer D (25 mM HEPES, pH7.5, 20% glycerol, 300 mM NaCl, 0.2% Triton-X100, 10 mM βME). Sample was loaded at a flow rate of 1 mL/min. NS3/4A protease complex-containing fractions were pooled and concentrated to approximately 0.5 mg/ml.
# The enzyme was stored at −80° C., thawed on ice and diluted prior to use in assay buffer. […] The sequence of this peptide is loosely based on the NS4A/NS4B natural cleavage site except there is an ester linkage rather than an amide bond at the cleavage site. The peptide substrate was incubated with one of the three recombinant NS3/4A complexes, in the absence or presence of a compound of the present invention, and the formation of fluorescent reaction product was followed in real time using a Cytofluor Series 4000.
# The reagents were as follow: HEPES and Glycerol (Ultrapure) were obtained from GIBCO-BRL. Dimethyl Sulfoxide (DMSO) was obtained from Sigma. β-Mercaptoethanol was obtained from Bio Rad.
# Substrate: 2 μM final concentration (from a 2 mM stock solution in DMSO stored at −20° C.). HCV NS3/4A type 1a (1b), 2-3 nM final concentration (from a 5 μM stock solution in 25 mM HEPES, pH7.5, 20% glycerol, 300 mM NaCl, 0.2% Triton-X100, 10 mM βME).
# The assay was performed in a 96-well polystyrene black plate from Falcon. Each well contained 25 μl NS3/4A protease complex in assay buffer, 50 μof a compound of the present invention in 10% DMSO/assay buffer and 25 μl substrate in assay buffer. A control (no compound) was also prepared on the same assay plate. The enzyme complex was mixed with compound or control solution for 1 min before initiating the enzymatic reaction by the addition of substrate. The assay plate was read immediately using the Cytofluor Series 4000 (Perspective Biosystems). The instrument was set to read an […] at 25° C. Reactions were generally followed for approximately 15 minutes.
# The percent inhibition was calculated with the following equation: 100−[(δFinh/δFcon)×100] where δF is the change in fluorescence over the linear range of the curve.
# [1] = NS3/4A BMS strain; read-out: IC50 range
SMILES,IC50 [1],IC50 (read-out: IC50 range; NS3/4A BMS strain)
C=C[C@@H]1C[C@]1(NC(=O)C1C[C@@H](Oc2nc(C3CC3)nc3cc(OC)c(OC)cc23)CN1C(=O)[C@@H](N)C(C)(C)C)C(=O)NS(=O)(=O)C1CC1 (some centres unmarked) [Compound 49],1 to 10 µM,
C=C[C@@H]1C[C@]1(NC(=O)C1C[C@@H](Oc2nc(C(F)(F)F)nc3cc(OC)c(OC)cc23)CN1C(=O)[C@@H](N)C(C)(C)C)C(=O)NS(=O)(=O)C1CC1 (some centres unmarked) [Compound 52],1 to 10 µM,
C=CC1CC1(NC(=O)C1CC(Oc2nccc3cc(OC)ccc23)CN1C(=O)C(NC)C(C)CC)C(=O)NS(=O)(=O)C1CC1 (centres unmarked) [Compound 99],,1 to 10 µM
"C=CC1C[C@]1(NC(=O)[C@@H]1C[C@@H](Oc2nc(-c3cnccn3)c(OC)c3ccccc23)CN1C(=O)[C@@H](NC(=O)OC(C)(C)C)C(C)(C)C)C(=O)NS(=O)(=O)C1CC1 (stereo partly drawn) [Compound 231, BOCNH-P3(L-t-BuGly)-P2[(4R)-(3-pyrazine-2-yl-4-methoxy -isoquinolin-1-oxo)-S-proline]-P1(1R,2S VinylAcca)-CONHSO2Cyclopropane]",1 to 10 µM,
"C=CC1C[C@]1(NC(=O)[C@@H]1C[C@@H](Oc2nc(Cl)c(OC)c3ccccc23)CN1C(=O)[C@@H](NC(=O)OC(C)(C)C)C(C)(C)C)C(=O)NS(=O)(=O)C1CC1 (stereo partly drawn) [Compound 245, BOCNH-P3(L-t-BuGly)-P2[(4R)-(3-chloro-4-methoxyisoquinoline-1-oxo)-S-proline]-P1(1R,2S VinylAcca)-CONHSO2Cyclopropane]",0.1 to 1 µM,
C=C[C@@H]1C[C@]1(NC(=O)[C@@H]1C[C@@H](Oc2nccc3c(O)cccc23)CN1C(=O)[C@@H](NC(=O)OC(C)(C)C)C(C)(C)C)C(=O)NS(=O)(=O)C1CC1 [Compound 256],10 to 100 µM,
C=CC1C[C@]1(NC(=O)[C@@H]1C[C@@H](Oc2nc(-c3cnc(N(C)C)s3)cc3cc(OC)ccc23)CN1C(=O)[C@@H](NC(=O)OC(C)(C)C)C(C)(C)C)C(=O)NS(=O)(=O)C1CC1 (some centres unmarked) [Compound 331],< 0.1 µM,
C=CC1CC1(NC(=O)[C@@H]1C[C@@H](Oc2ccnc(N3CCc4ccccc4C3)n2)CN1C(=O)[C@@H](NC(=O)OC)C(C)(C)C)C(=O)NS(=O)(=O)C1CC1 (some centres unmarked) [Compound 341],1 to 10 µM,
C=CC1CC1(NC(=O)[C@@H]1C[C@@H](Oc2ccnc(N3Cc4ccccc4C3)n2)CN1C(=O)[C@@H](NC(=O)OC)C(C)(C)C)C(=O)NS(=O)(=O)C1CC1 (some centres unmarked) [Compound 342],1 to 10 µM,
C=CC1CC1(NC(=O)[C@@H]1C[C@@H](Oc2ccnc(N3CCOCC3)n2)CN1C(=O)[C@@H](NC(=O)OC)C(C)(C)C)C(=O)NS(=O)(=O)C1CC1 (some centres unmarked) [Compound 343],1 to 10 µM,
C=CC1C[C@]1(NC(=O)[C@@H]1C[C@@H](COc2ccnc3ccccc23)CN1C(=O)[C@@H](NC(=O)OC)C(C)(C)C)C(=O)NS(=O)(=O)C1CC1 (some centres unmarked) [Compound 344],0.1 to 1 µM,
C=CC1C[C@]1(NC(=O)[C@@H]1C[C@@H](COc2cncc(Br)c2)CN1C(=O)[C@@H](NC(=O)OC)C(C)(C)C)C(=O)NS(=O)(=O)C1CC1 (some centres unmarked) [Compound 346],1 to 10 µM,
C=CC1C[C@]1(NC(=O)[C@@H]1C[C@@H](COc2ccnc(Br)c2)CN1C(=O)[C@@H](NC(=O)OC)C(C)(C)C)C(=O)NS(=O)(=O)C1CC1 (some centres unmarked) [Compound 348],10 to 100 µM,
C=CC1C[C@]1(NC(=O)[C@@H]1C[C@@H](COc2ccnc(-c3ccsc3)c2)CN1C(=O)[C@@H](NC(=O)OC)C(C)(C)C)C(=O)NS(=O)(=O)C1CC1 (some centres unmarked) [Compound 349],1 to 10 µM,
C=CC1C[C@]1(NC(=O)[C@@H]1C[C@@H](COc2ccnc(-c3ccoc3)c2)CN1C(=O)[C@@H](NC(=O)OC)C(C)(C)C)C(=O)NS(=O)(=O)C1CC1 (some centres unmarked) [Compound 351],1 to 10 µM,
C=CC1C[C@]1(NC(=O)[C@@H]1C[C@@H](COc2cccc(Br)n2)CN1C(=O)[C@@H](NC(=O)OC)C(C)(C)C)C(=O)NS(=O)(=O)C1CC1 (some centres unmarked) [Compound 352],10 to 100 µM,
C=CC1C[C@]1(NC(=O)[C@@H]1C[C@@H](COc2cccc(-c3ccsc3)n2)CN1C(=O)[C@@H](NC(=O)OC)C(C)(C)C)C(=O)NS(=O)(=O)C1CC1 (some centres unmarked) [Compound 353],10 to 100 µM,
